Results taken from the supplement of paper PMC10307832.

Columns and labels:
Assay in all cases: relative viability (nuclei count vs DMSO), 5 days (fraction); higher = more cells survive
XMD8-85 + Alpelisib = compound: CN1CCN(CC1)C2=CC(=C(C=C2)NC3=NC=C4C(=N3)N(C5=CC=CC=C5C(=O)N4C)C)OC [XMD8-85] + Cc1nc(NC(=O)N2CCC[C@H]2C(N)=O)sc1-c1ccnc(C(C)(C)C(F)(F)F)c1 [Alpelisib] (partner 2 µM)
In short: (§1)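 Lung cancer cell lines in 1536-well plates were dosed by pin tool the day after seeding, either with one drug alone or with a fixed anchor-drug dose plus five library-drug doses (not always all listed) in √10 steps. After 5 days, cells were fixed and their nuclei stained in one step (final 0.05% Triton X-100, 1% formaldehyde, 1 ug/ml Hoechst), then counted on 4× images. Relative viability is the nuclei count in treated wells divided by that in vehicle wells. Values are medians of duplicate plates.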

4EGI-1 + Palbociclib = compound: O=C(O)C(Cc1ccccc1[N+](=O)[O-])=NNc1nc(-c2ccc(Cl)c(Cl)c2)cs1 (mixture of isomers) [4EGI-1] + CC(=O)c1c(C)c2cnc(Nc3ccc(N4CCNCC4)cn3)nc2n(C2CCCC2)c1=O [Palbociclib] (partner 0.5 µM)
In short: as §1

4EGI-1 + Bortezomib = compound: O=C(O)C(Cc1ccccc1[N+](=O)[O-])=NNc1nc(-c2ccc(Cl)c(Cl)c2)cs1 (mixture of isomers) [4EGI-1] + CC(C)C[C@H](NC(=O)[C@H](Cc1ccccc1)NC(=O)c1cnccn1)B(O)O [Bortezomib] (partner 0.002 µM)
In short: as §1

4EGI-1 + AZD7762 = compound: O=C(O)C(Cc1ccccc1[N+](=O)[O-])=NNc1nc(-c2ccc(Cl)c(Cl)c2)cs1 (mixture of isomers) [4EGI-1] + NC(=O)Nc1cc(-c2cccc(F)c2)sc1C(=O)N[C@H]1CCCNC1 [AZD7762] (partner 0.2 µM)
In short: as §1

Row | Cell Line | relative viability (XMD8-85 + Alpelisib; first compound 0.08 µM) | relative viability (XMD8-85 + Alpelisib; first compound 0.253 µM) | relative viability (XMD8-85 + Alpelisib; first compound 0.8 µM) | relative viability (XMD8-85 + Alpelisib; first compound 2.53 µM) | relative viability (XMD8-85 + Alpelisib; first compound 8 µM) | relative viability (4EGI-1 + Palbociclib; first compound 0.5 µM) | relative viability (4EGI-1 + Palbociclib; first compound 1.581 µM) | relative viability (4EGI-1 + Palbociclib; first compound 5 µM) | relative viability (4EGI-1 + Palbociclib; first compound 15.81 µM) | relative viability (4EGI-1 + Palbociclib; first compound 50 µM) | relative viability (4EGI-1 + Bortezomib; first compound 0.5 µM) | relative viability (4EGI-1 + Bortezomib; first compound 1.581 µM) | relative viability (4EGI-1 + Bortezomib; first compound 5 µM) | relative viability (4EGI-1 + Bortezomib; first compound 15.81 µM) | relative viability (4EGI-1 + Bortezomib; first compound 50 µM) | relative viability (4EGI-1 + AZD7762; first compound 0.5 µM) | relative viability (4EGI-1 + AZD7762; first compound 1.581 µM) | relative viability (4EGI-1 + AZD7762; first compound 5 µM) | relative viability (4EGI-1 + AZD7762; first compound 15.81 µM) | relative viability (4EGI-1 + AZD7762; first compound 50 µM)
1 | NCI-H2126 | 0.628 | 0.767 | 0.814 | 0.776 | 0.724 | 0.324 | 0.371 | 0.326 | 0.343 | 0.339 | 1.13 | 1.04 | 1.07 | 1 | 1.11 | 1.03 | 1.09 | 1 | 0.901 | 0.772
2 | NCI-H2347 | 1.03 | 1.06 | 1.03 | 1 | 0.801 | 0.427 | 0.405 | 0.447 | 0.413 | 0.34 | 1.06 | 0.835 | 0.992 | 1.08 | 0.886 | 0.858 | 0.78 | 0.734 | 0.732 | 0.593
3 | NCI-H2405 | 0.812 | 0.818 | 0.833 | 0.539 | 0.568 | 0.606 |  | 0.508 | 0.55 | 0.329 | 0.972 | 0.858 | 0.949 | 0.992 | 0.79 | 0.746 |  | 0.851 | 0.692 | 0.285
4 | NCI-H3122 | 0.814 | 0.71 | 0.954 | 0.93 | 0.766 | 0.191 | 0.158 | 0.152 | 0.227 | 0.199 | 1.07 | 0.975 | 0.918 | 1.06 | 0.352 | 1.01 | 0.972 | 0.957 | 0.926 | 0.48
5 | PC-3 [JPC-3] | 1.02 | 1.05 | 1.06 | 1.01 | 1.01 | 0.472 |  | 0.573 | 0.472 | 0.458 | 0.787 | 0.81 | 0.812 |  | 0.645 | 0.845 |  | 0.868 | 0.519 | 0.323
6 | PC-14 | 0.784 | 0.882 | 0.762 | 0.993 | 0.655 | 0.559 |  | 0.659 | 0.188 | 0.0675 | 1.06 |  | 0.839 |  | 0.859 | 0.342 |  | 0.367 | 0.117 | 0.0594
7 | RERF-LC-KJ | 0.763 | 0.675 | 0.957 | 0.915 | 0.677 | 1.09 | 0.481 | 0.953 | 0.882 | 0.625 | 1.09 |  | 1.07 | 0.847 | 0.931 | 0.984 | 0.605 | 1.11 | 0.669 | 0.604
